Test results taken from PMC9898036, “VIP152 is a selective CDK9 inhibitor with pre-clinical in vitro and in vivo efficacy in chronic lymphocytic leukemia” (Leukemia, 2022).
Like-named read-outs stand apart in the source and are kept apart here.

What was measured:
Assay in all cases: DiscoverX KINOMEscan kinase profiling (468 assays)
Format in all cases: binding
human kinome [1] = target: human kinome (Homo sapiens, UniProt O00141); conditions: kinase SGK (Entrez SGK1); compound concentration 1000 nM; read-out: Percent Control
Method: (§1) Kinomescan Kinase Profiling Assay
(§2) Kinomescan Assay was performed at DiscoverRX and described in Fabian, et al. 2005, Nat.
(§3) Biotechnol. In brief, kinases were produced and subsequently tagged with DNA for qPCR detection.
(§4) Streptavidin-coated magnetic beads were bound to biotinylated kinase ligands to serve as a solid support.
(§5) VIP152 was dissolved in DMSO and tested across a 10 serial threefold dilution set and compared to a test
(§6) compound and a DMSO control.
(§7) Kinome map was produced via TreeSpot
(§8) Analysis from DiscoverRX. […]

human kinome [2] = target: human kinome (Homo sapiens, UniProt P51817); conditions: read-out: Percent Control
human kinome (Homo sapiens, UniProt P51817), sequence (P51817 whole entry): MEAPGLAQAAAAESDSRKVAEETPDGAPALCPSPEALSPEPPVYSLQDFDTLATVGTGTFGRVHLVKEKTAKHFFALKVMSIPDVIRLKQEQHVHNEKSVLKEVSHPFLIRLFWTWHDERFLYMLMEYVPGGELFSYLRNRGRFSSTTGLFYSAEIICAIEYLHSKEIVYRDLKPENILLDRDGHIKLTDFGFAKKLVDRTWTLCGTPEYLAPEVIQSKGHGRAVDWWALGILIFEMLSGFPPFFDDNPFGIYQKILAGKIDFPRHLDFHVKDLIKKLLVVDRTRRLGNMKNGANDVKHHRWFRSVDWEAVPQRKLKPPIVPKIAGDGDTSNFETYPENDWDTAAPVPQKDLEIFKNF
Method: as §1, §2, §3, §4, §5, §6, §7, §8

human kinome [3] = target: human kinome (Homo sapiens, UniProt Q8IVW4); conditions: CDKL3; 100 nM; read-out: Percent Control
Method: as §1, §2, §3, §4, §5, §6, §7, §8

human kinome [4] = target: human kinome (Homo sapiens, UniProt P35626); conditions: GRK3 (Entrez ADRBK2); 100 nM; read-out: Percent Control
Method: as §1, §2, §3, §4, §5, §6, §7, §8

human kinome [5] = target: human kinome (Homo sapiens, UniProt Q9UBE8); conditions: read-out: Percent Control
human kinome (Homo sapiens, UniProt Q9UBE8), sequence (Q9UBE8 whole entry): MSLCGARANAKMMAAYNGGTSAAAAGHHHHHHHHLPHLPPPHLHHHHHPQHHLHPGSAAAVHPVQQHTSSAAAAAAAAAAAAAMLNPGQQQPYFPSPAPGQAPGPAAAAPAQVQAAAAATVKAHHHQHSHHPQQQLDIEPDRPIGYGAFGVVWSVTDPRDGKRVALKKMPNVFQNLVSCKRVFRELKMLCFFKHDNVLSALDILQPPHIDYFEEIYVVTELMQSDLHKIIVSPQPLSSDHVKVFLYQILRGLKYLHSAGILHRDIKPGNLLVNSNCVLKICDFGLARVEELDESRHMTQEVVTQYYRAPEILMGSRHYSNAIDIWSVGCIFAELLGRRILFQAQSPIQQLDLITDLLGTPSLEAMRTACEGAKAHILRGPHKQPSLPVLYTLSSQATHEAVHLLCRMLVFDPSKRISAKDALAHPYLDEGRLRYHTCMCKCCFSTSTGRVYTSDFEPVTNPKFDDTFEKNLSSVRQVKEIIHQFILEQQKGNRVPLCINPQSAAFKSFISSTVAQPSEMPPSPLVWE
Method: as §1, §2, §3, §4, §5, §6, §7, §8

human kinome [6] = target: human kinome (Homo sapiens, UniProt O43683); conditions: BUB1; 100 nM; read-out: Percent Control
Method: as §1, §2, §3, §4, §5, §6, §7, §8

human kinome [7] = target: human kinome (Homo sapiens, UniProt Q7L7X3); conditions: kinase TAOK1 (Entrez TAOK1); compound concentration 1000 nM; read-out: Percent Control
Method: as §1, §2, §3, §4, §5, §6, §7, §8

human kinome [8] = target: human kinome (Homo sapiens, UniProt P41743); conditions: read-out: Percent Control
human kinome (Homo sapiens, UniProt P41743), sequence (P41743 whole entry): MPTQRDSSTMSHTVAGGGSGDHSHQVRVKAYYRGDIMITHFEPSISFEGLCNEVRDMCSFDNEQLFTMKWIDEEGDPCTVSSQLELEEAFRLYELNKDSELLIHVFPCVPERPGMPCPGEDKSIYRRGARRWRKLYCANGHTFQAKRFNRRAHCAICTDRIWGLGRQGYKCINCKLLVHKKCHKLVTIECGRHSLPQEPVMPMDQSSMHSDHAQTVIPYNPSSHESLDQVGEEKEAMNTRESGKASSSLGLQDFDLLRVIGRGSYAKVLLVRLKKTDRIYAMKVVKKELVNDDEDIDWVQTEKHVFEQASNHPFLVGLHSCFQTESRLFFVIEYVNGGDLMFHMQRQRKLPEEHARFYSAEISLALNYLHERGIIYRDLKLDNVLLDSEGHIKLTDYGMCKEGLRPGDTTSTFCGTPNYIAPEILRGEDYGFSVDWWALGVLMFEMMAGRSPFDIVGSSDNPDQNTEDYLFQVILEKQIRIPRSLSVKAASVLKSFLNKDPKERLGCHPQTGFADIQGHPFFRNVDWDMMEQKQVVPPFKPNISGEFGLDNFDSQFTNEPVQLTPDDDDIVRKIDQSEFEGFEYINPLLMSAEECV
Method: as §1, §2, §3, §4, §5, §6, §7, §8

human kinome [9] = target: human kinome (Homo sapiens, UniProt P00533, L858R/T790M); conditions: EGFR(L858R,T790M); 100 nM; read-out: Percent Control
Method: as §1, §2, §3, §4, §5, §6, §7, §8

human kinome [10] = target: human kinome (Homo sapiens, UniProt Q9H0K1); conditions: kinase SIK2 (Entrez SIK2); compound concentration 1000 nM; read-out: Percent Control
Method: as §1, §2, §3, §4, §5, §6, §7, §8

human kinome [11] = target: human kinome (Homo sapiens, UniProt Q99683); conditions: ASK1 (Entrez MAP3K5); 100 nM; read-out: Percent Control
Method: as §1, §2, §3, §4, §5, §6, §7, §8

human kinome [12] = target: human kinome (Homo sapiens, UniProt Q6DT37); conditions: DMPK2 (Entrez CDC42BPG); 100 nM; read-out: Percent Control
Method: as §1, §2, §3, §4, §5, §6, §7, §8

human kinome [13] = target: human kinome (Homo sapiens, UniProt P48730); conditions: CSNK1D; 100 nM; read-out: Percent Control
human kinome (Homo sapiens, UniProt P48730), sequence (P48730 whole entry): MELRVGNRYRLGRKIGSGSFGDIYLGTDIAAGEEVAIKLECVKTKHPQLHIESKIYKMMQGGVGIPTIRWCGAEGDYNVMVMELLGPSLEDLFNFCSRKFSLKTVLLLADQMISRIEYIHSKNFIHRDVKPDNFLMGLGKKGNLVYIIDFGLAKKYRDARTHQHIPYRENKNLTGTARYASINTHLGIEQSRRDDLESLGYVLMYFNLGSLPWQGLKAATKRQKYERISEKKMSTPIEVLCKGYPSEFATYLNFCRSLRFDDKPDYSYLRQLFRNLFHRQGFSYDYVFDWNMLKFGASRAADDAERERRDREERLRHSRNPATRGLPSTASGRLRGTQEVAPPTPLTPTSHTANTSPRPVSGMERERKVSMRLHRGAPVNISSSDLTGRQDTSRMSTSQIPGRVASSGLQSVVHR
Method: as §1, §2, §3, §4, §5, §6, §7, §8

human kinome [14] = target: human kinome (Homo sapiens, UniProt P45985); conditions: MEK4 (Entrez MAP2K4); 100 nM; read-out: Percent Control
Method: as §1, §2, §3, §4, §5, §6, §7, §8

human kinome [15] = target: human kinome (Homo sapiens, UniProt Q9BQI3); conditions: EIF2AK1; 100 nM; read-out: Percent Control
Method: as §1, §2, §3, §4, §5, §6, §7, §8

human kinome [16] = target: human kinome (Homo sapiens, UniProt Q9UM73); conditions: ALK; 100 nM; read-out: Percent Control
Method: as §1, §2, §3, §4, §5, §6, §7, §8

human kinome [17] = target: human kinome (Homo sapiens, UniProt P35916); conditions: FLT4; 100 nM; read-out: Percent Control
Method: as §1, §2, §3, §4, §5, §6, §7, §8

human kinome [18] = target: human kinome (Homo sapiens, UniProt O60285); conditions: ARK5 (Entrez NUAK1); 100 nM; read-out: Percent Control
Method: as §1, §2, §3, §4, §5, §6, §7, §8

human kinome [19] = target: human kinome (Homo sapiens, UniProt Q02763); conditions: kinase TIE2 (Entrez TEK); compound concentration 1000 nM; read-out: Percent Control
Method: as §1, §2, §3, §4, §5, §6, §7, §8

human kinome [20] = target: human kinome (Homo sapiens, UniProt P49674); conditions: CSNK1E; 100 nM; read-out: Percent Control
human kinome (Homo sapiens, UniProt P49674), sequence (P49674 whole entry): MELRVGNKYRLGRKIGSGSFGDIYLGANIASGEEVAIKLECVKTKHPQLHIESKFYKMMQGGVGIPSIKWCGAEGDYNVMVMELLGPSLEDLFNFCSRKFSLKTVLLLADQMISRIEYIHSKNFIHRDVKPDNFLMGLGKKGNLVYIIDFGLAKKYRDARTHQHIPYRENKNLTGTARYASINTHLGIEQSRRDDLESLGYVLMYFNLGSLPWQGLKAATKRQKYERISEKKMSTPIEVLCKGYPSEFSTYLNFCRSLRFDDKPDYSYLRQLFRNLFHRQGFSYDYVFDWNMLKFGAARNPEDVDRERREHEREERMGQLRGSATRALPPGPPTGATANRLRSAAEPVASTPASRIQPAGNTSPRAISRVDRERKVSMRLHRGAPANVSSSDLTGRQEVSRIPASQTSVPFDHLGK
Method: as §1, §2, §3, §4, §5, §6, §7, §8

human kinome [21] = target: human kinome (Homo sapiens, UniProt Q9UL54); conditions: kinase TAOK2 (Entrez TAOK2); compound concentration 1000 nM; read-out: Percent Control
Method: as §1, §2, §3, §4, §5, §6, §7, §8

human kinome [22] = target: human kinome (Homo sapiens, UniProt P00533); conditions: EGFR; 100 nM; read-out: Percent Control
Method: as §1, §2, §3, §4, §5, §6, §7, §8

human kinome [23] = target: human kinome (Homo sapiens, UniProt Q92630); conditions: DYRK2; 100 nM; read-out: Percent Control
Method: as §1, §2, §3, §4, §5, §6, §7, §8

human kinome [24] = target: human kinome (Homo sapiens, UniProt P36888); conditions: 100 nM, read-out: Percent Control
human kinome (Homo sapiens, UniProt P36888), sequence (P36888 27-993): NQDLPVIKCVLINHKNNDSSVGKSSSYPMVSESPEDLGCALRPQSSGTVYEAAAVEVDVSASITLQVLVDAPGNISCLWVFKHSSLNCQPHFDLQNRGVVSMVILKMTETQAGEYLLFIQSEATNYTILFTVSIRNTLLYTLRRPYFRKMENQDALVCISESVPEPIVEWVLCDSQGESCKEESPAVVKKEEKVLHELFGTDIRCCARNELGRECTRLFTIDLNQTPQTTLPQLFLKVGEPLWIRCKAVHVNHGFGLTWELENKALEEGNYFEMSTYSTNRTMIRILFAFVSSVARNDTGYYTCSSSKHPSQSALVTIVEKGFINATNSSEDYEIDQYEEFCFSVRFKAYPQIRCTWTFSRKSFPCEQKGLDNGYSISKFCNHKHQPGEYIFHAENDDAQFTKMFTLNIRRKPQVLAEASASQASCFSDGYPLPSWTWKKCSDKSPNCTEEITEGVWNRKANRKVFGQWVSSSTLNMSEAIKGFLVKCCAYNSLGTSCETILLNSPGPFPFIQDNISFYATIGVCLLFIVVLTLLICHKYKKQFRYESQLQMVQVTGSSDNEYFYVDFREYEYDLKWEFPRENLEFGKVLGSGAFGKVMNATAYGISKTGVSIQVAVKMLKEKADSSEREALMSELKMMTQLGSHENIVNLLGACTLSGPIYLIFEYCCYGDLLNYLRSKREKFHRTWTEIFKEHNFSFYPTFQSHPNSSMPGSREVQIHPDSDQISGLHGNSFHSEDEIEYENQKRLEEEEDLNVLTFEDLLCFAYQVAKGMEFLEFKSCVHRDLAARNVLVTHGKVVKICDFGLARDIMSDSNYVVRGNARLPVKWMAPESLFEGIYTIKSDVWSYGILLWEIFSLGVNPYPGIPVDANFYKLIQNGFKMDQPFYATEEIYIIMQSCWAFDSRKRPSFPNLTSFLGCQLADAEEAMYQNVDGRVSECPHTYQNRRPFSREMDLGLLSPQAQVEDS
Method: as §1, §2, §3, §4, §5, §6, §7, §8

human kinome [25] = target: human kinome (Homo sapiens, UniProt Q13153); conditions: read-out: Percent Control
human kinome (Homo sapiens, UniProt Q13153), sequence (Q13153 whole entry): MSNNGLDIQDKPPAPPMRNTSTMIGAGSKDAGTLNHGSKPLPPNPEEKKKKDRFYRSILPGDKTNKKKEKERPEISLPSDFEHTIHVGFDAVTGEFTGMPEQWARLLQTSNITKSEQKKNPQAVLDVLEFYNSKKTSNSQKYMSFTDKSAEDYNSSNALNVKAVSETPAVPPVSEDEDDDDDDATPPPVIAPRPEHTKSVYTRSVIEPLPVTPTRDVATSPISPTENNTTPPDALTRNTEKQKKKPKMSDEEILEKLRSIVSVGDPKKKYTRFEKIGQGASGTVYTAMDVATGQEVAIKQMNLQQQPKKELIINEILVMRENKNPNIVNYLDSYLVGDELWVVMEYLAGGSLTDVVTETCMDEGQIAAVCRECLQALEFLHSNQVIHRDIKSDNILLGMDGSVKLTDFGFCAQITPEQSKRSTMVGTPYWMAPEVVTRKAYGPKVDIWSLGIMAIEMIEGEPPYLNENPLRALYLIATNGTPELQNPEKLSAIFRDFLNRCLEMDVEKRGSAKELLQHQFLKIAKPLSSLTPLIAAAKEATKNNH
Method: as §1, §2, §3, §4, §5, §6, §7, §8

human kinome [26] = target: human kinome (Homo sapiens, UniProt Q9C098); conditions: DCAMKL3 (Entrez DCLK3); 100 nM; read-out: Percent Control
Method: as §1, §2, §3, §4, §5, §6, §7, §8

human kinome [27] = target: human kinome (Homo sapiens, UniProt Q16512); conditions: read-out: Percent Control
human kinome (Homo sapiens, UniProt Q16512), sequence (Q16512 whole entry): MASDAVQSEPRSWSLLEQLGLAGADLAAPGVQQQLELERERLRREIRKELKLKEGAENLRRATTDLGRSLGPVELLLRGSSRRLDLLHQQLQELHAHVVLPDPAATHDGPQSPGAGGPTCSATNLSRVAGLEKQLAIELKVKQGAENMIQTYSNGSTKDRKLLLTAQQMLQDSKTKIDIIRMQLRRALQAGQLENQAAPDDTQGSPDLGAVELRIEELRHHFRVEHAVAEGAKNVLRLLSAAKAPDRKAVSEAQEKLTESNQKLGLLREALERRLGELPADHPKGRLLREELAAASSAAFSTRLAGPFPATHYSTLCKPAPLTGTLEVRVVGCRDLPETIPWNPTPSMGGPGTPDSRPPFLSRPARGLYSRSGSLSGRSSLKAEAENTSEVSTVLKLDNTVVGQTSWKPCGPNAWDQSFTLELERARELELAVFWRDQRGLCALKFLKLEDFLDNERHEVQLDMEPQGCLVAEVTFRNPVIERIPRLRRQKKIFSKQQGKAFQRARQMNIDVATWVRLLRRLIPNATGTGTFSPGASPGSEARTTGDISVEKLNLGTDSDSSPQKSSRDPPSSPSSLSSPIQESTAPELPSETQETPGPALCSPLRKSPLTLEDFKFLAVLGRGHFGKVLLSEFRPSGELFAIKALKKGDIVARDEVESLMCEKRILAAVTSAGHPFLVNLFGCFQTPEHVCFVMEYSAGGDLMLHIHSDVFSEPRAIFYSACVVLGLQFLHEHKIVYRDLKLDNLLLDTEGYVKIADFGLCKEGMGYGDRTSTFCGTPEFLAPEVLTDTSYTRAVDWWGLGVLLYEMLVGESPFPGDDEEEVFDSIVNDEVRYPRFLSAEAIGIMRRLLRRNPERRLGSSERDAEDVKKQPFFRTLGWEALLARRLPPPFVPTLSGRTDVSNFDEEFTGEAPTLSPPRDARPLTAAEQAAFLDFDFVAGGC
Method: as §1, §2, §3, §4, §5, §6, §7, §8

human kinome [28] = target: human kinome (Homo sapiens, UniProt P08631); conditions: HCK; 100 nM; read-out: Percent Control
Method: as §1, §2, §3, §4, §5, §6, §7, §8

human kinome [29] = target: human kinome (Homo sapiens, UniProt P10721, T670I/V559D); conditions: KIT(V559D,T670I); 100 nM; read-out: Percent Control
Method: as §1, §2, §3, §4, §5, §6, §7, §8

human kinome [30] = target: human kinome (Homo sapiens, UniProt Q13627); conditions: DYRK1A; 100 nM; read-out: Percent Control
Method: as §1, §2, §3, §4, §5, §6, §7, §8

COc1cc(F)ccc1-c1cc(Nc2cc(CS(C)(=N)=O)ccn2)ncc1F (stereo not drawn) [VIP152]
remaining binding at 1 µM (human kinome [1]): 83% | remaining binding at 0.1 µM (human kinome [2]; PRKX, 100 nM): 100% | remaining binding at 1 µM (human kinome [2]; kinase PRKX (Entrez PRKX), compound concentration 1000 nM): 99% | remaining binding at 0.1 µM (human kinome [3]): 100% | remaining binding at 0.1 µM (human kinome [4]): 89% | remaining binding at 0.1 µM (human kinome [5]; NLK, 100 nM): 100% | remaining binding at 1 µM (human kinome [5]; kinase NLK (Entrez NLK), compound concentration 1000 nM): 59% | remaining binding at 0.1 µM (human kinome [6]): 100% | remaining binding at 1 µM (human kinome [7]): 62% | remaining binding at 0.1 µM (human kinome [8]; PRKCI, 100 nM): 90% | remaining binding at 1 µM (human kinome [8]; kinase PRKCI (Entrez PRKCI), compound concentration 1000 nM): 96% | remaining binding at 0.1 µM (human kinome [9]): 93% | remaining binding at 1 µM (human kinome [10]): 79% | remaining binding at 0.1 µM (human kinome [11]): 100% | remaining binding at 0.1 µM (human kinome [12]): 100% | remaining binding at 0.1 µM (human kinome [13]): 100% | remaining binding at 0.1 µM (human kinome [14]): 100% | remaining binding at 0.1 µM (human kinome [15]): 100% | remaining binding at 0.1 µM (human kinome [16]): 100% | remaining binding at 0.1 µM (human kinome [17]): 100% | remaining binding at 0.1 µM (human kinome [18]): 100% | remaining binding at 1 µM (human kinome [19]): 86% | remaining binding at 0.1 µM (human kinome [20]): 95% | remaining binding at 1 µM (human kinome [21]): 67% | remaining binding at 0.1 µM (human kinome [22]): 100% | remaining binding at 0.1 µM (human kinome [23]): 99% | remaining binding at 0.1 µM (human kinome [24]; FLT3-autoinhibited): 99% | remaining binding at 0.1 µM (human kinome [24]; FLT3): 72% | remaining binding at 0.1 µM (human kinome [25]; PAK1, 100 nM): 100% | remaining binding at 1 µM (human kinome [25]; kinase PAK1 (Entrez PAK1), compound concentration 1000 nM): 100% | remaining binding at 0.1 µM (human kinome [26]): 100% | remaining binding at 0.1 µM (human kinome [27]; PKN1, 100 nM): 100% | remaining binding at 1 µM (human kinome [27]; kinase PKN1 (Entrez PKN1), compound concentration 1000 nM): 88% | remaining binding at 0.1 µM (human kinome [28]): 97% | remaining binding at 0.1 µM (human kinome [29]): 100% | remaining binding at 0.1 µM (human kinome [30]): 64%
